Consider two compounds from BindingDB's records for patent US20230365541 (Haisco Pharmaceuticals, 2023).

In the assay the target is Histone-lysine N-methyltransferase EZH2 (Homo sapiens, UniProt Q15910). The experiment in a line: EZH2 Enzyme Activity Assay. On the procedure: The compounds were dissolved in DMSO, formulated into 10 mM solutions and serially diluted with DMSO to obtain 100-fold the final concentration. 200 nL of the solutions of the compounds was transferred to a 384-well plate (Perkin Elmer, Cat. No. 6007299) by using Echo550. EZH2 (BPS, Cat. No. 51004) was diluted with 1×assay buffer (50 mM Tris-HCl 9.0, 0.01% Tween-20, 1 mM DTT) to 2-fold the final concentration (EZH2: 3 nM). A mixed solution of H3K27(21-44) and [3H]-SAM (PerkinElmer, Lot. No. 2146246) (H3K27(21-44): 200 nM, [3H]-SAM: 100 nM) was formulated. The EZH2 diluted solution was taken and added to the 384-well plate at 10 μL/well (10 μL of 1×assay buffer was added in the control group). The plate was sealed and then incubated at room temperature for 15 minutes. 10 μL of the mixed solution of H3K27 (21-44) and [3H]-SAM was added to each well. The plate was sealed and then incubated at room temperature for 60 minutes. 50 μM of SAM (Sigma, Cat. No. A7007) was formulated at low temperature and added to the 384-well plate at 10 μL/well. The sample was taken at 25 μL/well, transferred to a flashplate and incubated at room temperature for at least 1 hour. The flashplate was washed 3 times with a plate washing liquid (dH2O+0.1% Tween-20) and read by using Microbeta.

One may read the IC50 as the concentration needed to halve the response being measured. A high value points to weaker potency in that assay.

Each structure is given as a SMILES string.

Sequence of Histone-lysine N-methyltransferase EZH2 (Q15910 whole entry): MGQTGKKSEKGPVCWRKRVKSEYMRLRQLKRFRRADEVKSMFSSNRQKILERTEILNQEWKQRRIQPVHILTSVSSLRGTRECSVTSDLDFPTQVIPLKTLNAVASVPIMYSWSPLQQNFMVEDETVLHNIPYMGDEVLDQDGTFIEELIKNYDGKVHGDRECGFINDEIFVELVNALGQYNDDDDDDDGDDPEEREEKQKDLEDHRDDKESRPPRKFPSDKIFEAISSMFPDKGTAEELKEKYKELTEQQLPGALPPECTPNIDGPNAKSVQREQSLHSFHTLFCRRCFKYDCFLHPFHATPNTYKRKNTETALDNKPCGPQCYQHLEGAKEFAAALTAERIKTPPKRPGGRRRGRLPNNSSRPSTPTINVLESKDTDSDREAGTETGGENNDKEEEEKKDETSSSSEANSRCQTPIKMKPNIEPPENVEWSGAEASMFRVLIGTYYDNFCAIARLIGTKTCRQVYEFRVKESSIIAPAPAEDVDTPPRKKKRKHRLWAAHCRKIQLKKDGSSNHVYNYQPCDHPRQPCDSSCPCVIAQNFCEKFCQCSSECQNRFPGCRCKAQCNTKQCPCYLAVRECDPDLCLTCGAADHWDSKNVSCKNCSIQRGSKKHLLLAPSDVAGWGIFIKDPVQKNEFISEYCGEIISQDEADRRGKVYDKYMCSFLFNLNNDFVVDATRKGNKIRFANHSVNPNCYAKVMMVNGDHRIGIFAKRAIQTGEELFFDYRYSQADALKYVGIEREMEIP

`CNC(=O)N1CCC(C2(C)Oc3c(Cl)cc(C(=O)NCc4c(SC)cc(C)[nH]c4=O)c(C)c3O2)CC1` (configuration not stated) [US20230365541, Compound 13]: 0.43 nM corresponded to half-maximal inhibition (IC50).

Regarding `CSc1cc(C)[nH]c(=O)c1CNC(=O)c1cc(Cl)c2c(c1C)OC(C)(C1CCN(S(C)(=O)=O)CC1)O2` (configuration not stated) [US20230365541, Compound 14], the IC50 stood at 0.48 nM.
